Experimental data reported in patent US6142972A, “Method and apparatus for the delivery of elongate solid drug compositions” (Delab, priority 1998, dated 2000).

Assays:
[1] = pure insulin, depending on purity; cited from earlier work
[2] = Pharmacokinetics of SOMATULINE™ filament vs liquid solution in dogs (FIGS. 4A and 4B); format: in vivo; settings: dog, blood
Experimental: FIGS. 4A and 4B are graphs showing the blood level in a dog of a somatostatin analog, SOMATULINE™ (BIM-23014C, Biomeasure, Milford Mass.) after implantation of a solid filament compared to a liquid solution of BIM-23014C.
The above protocol was performed by mixing 1.500 g of HEC and 8.500 g of water. 0.42250 g of the resulting gel was added to 0.06395 g of BIM 23014. The mixture was extruded through a […] (0.3 mm internal diameter needle), collected, and dried under vacuum for 24 hours. The dried filament contained 0.107 mg of BIM 23014/cm (weight percentage 50% HEC and 50% BIM 23014).
The filaments were tested for pharmacokinetics and compared to liquid infusions of the same dosage of SOMATULINE™ in dogs. The results are shown in the graphs in FIGS. 4A, 4B, and 5. […] However, the blood concentration decreased to less than 0.1 ng/ml within about 2 hours, to less than 0.001 within about 8 hours, and to about 0.0005 ng/ml in less than 12 hours. On the other hand, the blood concentration of SOMATULINE™ provided by the solid drug filament was at an almost constant level over 0.1 ng/ml for the first 10 hours, declined to about 0.002 ng/ml within 24 hours, and declined further to 0.0005 ng/ml by 72 hours.

Row | Compound | Insulin Units (IU) per mg [1] | concentration at 10 h ([2]; solid drug filament, first 10 hours, read-out: blood concentration of SOMATULINE™ (almost constant level)) | concentration at 24 h ([2]; solid drug filament, within 24 hours) | C0 ([2]; solution formulation, initial, read-out: blood concentration of SOMATULINE™, initial) | concentration at 2 h ([2]; solution formulation, within about 2 hours) | concentration at 8 h ([2]; solution formulation, within about 8 hours)
1 | recombinant human insulin: pure insulin, e.g., recombinant human insulin | 26 to 28 Insulin Units (IU) per mg | – | – | – | – | –
2 | CC(C)[C@@H]1NC(=O)[C@H](CCCCN)NC(=O)[C@@H](Cc2c[nH]c3ccccc23)NC(=O)[C@H](Cc2ccc(O)cc2)NC(=O)[C@@H](NC(=O)[C@H](N)Cc2ccc3ccccc3c2)CSSC[C@@H](C(=O)N[C@H](C(N)=O)[C@@H](C)O)NC1=O [SOMATULINE™] | – | > 0.1 ng/mL | ~0.002 ng/mL | ~0.5 ng/mL | < 0.1 ng/mL | < 0.001 ng/mL
